Patent publication US9023814B2, “Glycomimetic compounds as anti-infectious against pathogens lectins” (priority 2010, dated 2015)

How the values were obtained:
LecA [1] = molecular target: T1, LecA (Pseudomonas aeruginosa, UniProt Q05097); assay: Inhibition of Hemagglutination (HIA), LecA-induced agglutination of rabbit erythrocytes; format: cell-based; settings: LecA 6 μg/mL, 25° C.
Protocol: Inhibition of Hemagglutination (IHA) (or Hemagglutination Inhibition Assays (HIA)).
The LecA lectin agglutinates red blood cells since they are covered by glycoconjugates. The glycomimetics inhibit this agglutination.
For each compound the minimum concentration able to perform inhibition has been evaluated. The method is not very quantitative but mimics natural system.
(§1) More particularly, hemagglutination inhibition assays were performed in U-shaped 96-well microtitre plates. Rabbit erythrocytes were bought from Biomerieux and used without further washing. The erythrocytes were diluted to a 4% solution in NaCl (150 mM). Lectin solutions of 2 mg/mL were prepared in Tris/HCl 20 mM, NaCl 100 mM and CaCl2 100 μM. The hemagglutination unit (HU) was first obtained by the addition of 25 μL of the 4% erythrocyte solution to 25 μL aliquots of sequential (two-fold) lectin dilutions. The mixture was incubated at 25° C. for 60 minutes. The HU was measured as the minimum lectin concentration required to […] hemagglutination. For the following lectin-inhibition assays, lectin concentrations of four times that of the hemagglutination unit were used, i.e. a concentration of 6 μg/mL for LecA. Subsequent assays were then carried out by the addition of 12.5 μL lectin solution (at the required concentration) to 25 μL of sequential dilutions of glycoclusters, monomer molecules and controls. These solutions were then incubated at 25° C. for 2 h then 12.5 μL of 4% erythrocyte solution was added followed by an additional incubation at 25° C. for 30 minutes. The minimum inhibitory concentration for each molecule was determined by simple eye detection.
Compounds 5, 10, 14, 19, 21, 23, 25, 27, 29 and 31 were evaluated towards LecA according to Method 1.

LecA [2] = molecular target: T1, LecA; assay: Enzyme-Linked Lectin Assay (ELLA), biotinylated LecA binding to polymeric galactose
Protocol: Enzyme-Linked Lectin Assay (ELLA) Experiments 96-well plates are covered with polymer presenting galactose (which is the monosaccharide that is bound by LecA). The lectin labelled with biotin is added in presence of competing glycomimetics. IC50 can be measured.
More particularly, ELLA experiments were conducted using 96-well microtitre plates (Nunc Maxisorb) coated with polymeric β-D-galactose (5 μg/mL; Lectinity Holding, Inc., Moscow) diluted in carbonate buffer, pH 9.6 (100 μL) for 1 h at 37° C. After blocking at 37° C. for 1 h with 100 μL per well of 3% (w/v) BSA in PBS, plates were incubated at 37° C. for 1 h with 100 μL of biotinylated LecA at 0.1 μg/mL in the presence of serial dilutions of inhibitors. After washing with T-PBS (PBS containing 0.05% Tween), 100 μL of streptavidinperoxidase conjugate (dilution 1:10000; Boehringer-Mannheim) was added and left for 1 h at 37° C. The color was developed using 100 μL per well of 0.05 M phosphate/citrate buffer containing O-phenylenediamine dihydrochloride (0.4 mg/mL) and urea hydrogen peroxide (0.4 mg/mL) (Sigma-Aldrich). The reaction was stopped by the addition of 50 μL of 30% H2SO4. Absorbance was read at 490 nm using a microtitre plate reader (Bio-Rad; model 680).

LecA [3] = molecular target: T1, LecA; assay: biochemical; format: binding
Protocol: Surface Plasmon Resonance (SPR).
Equivalent method, but performed in miniaturized channel on a galactose-containing chips in a more sophisticated apparatus (Biacore 3000) that allows for a precise determination of the IC50.
More particularly, SPR inhibition experiments were performed on a Biacore 3000 instrument at 25° C. Measurements were carried out on 2 channels with 2 immobilised sugars: α-L-fucose (channel 1), α-D-galactose (channel 2). Immobilization of sugars was performed at 25° C. using running buffer (HBS) at 5 μL/min. Immobilization on each channel (CM5 Chip) was performed independently as follows. First, channel was activated by injecting a fresh mixture of EDC/NHS (35 μL, 420 s). Then, a solution of strepatavidin (100 μg/mL in Na acetate pH 5 buffer) was injected (50 μL, 600 s). Remaining reactive species were quenched by injecting ethanolamine (1M, 35 μL, 420 s). Finally a solution of the desired biotinylated-polyacrylamide-sugar (Lectinity, 200 μg/mL) was coated onto the surface (50 μL, 600 s) through streptavidin-biotin interaction. This procedure led to 804 RU (fucoside) and 796 RU (galactoside) of immobilized sugars on channel 1 and 2 respectively. Inhibition experiments were performed with the galactosylated channel 2 and plots represent subtracted data (channel 2-channel 1).
LecA was injected using running buffer consisting of HEPES 10 mM, NaCl 150 mM, CaCl2 10 mM, Tween P20 0.005%, pH 7.4. Inhibition studies consisted in the injection (150 μL, 10 μL/min, dissociation: 120 s) of incubated (>1 h, r.t.) mixtures of LecA (5 μM) and various concentrations of inhibitor (2-fold cascade dilutions). For each inhibition assay, LecA (5 μM) without inhibitor was injected to observe the full adhesion of the lectin onto the sugar-coated surface (0% inhibition). The CM5 chip was fully regenerated by successive injections of D-Galactose (2×30 μL, 100 mM in running buffer).
Binding was measured as RU over time after blank subtraction, and data were then evaluated using the BIAevaluation Software, version 4.1. For IC50 evaluation, the response (Req-fitted) was considered as the amount of lectin bound to the sugar surface at equilibrium in the presence of a defined concentration of inhibitor. Inhibition curves were obtained by plotting the percentage of inhibition against the inhibitor concentration (on a logarithmic scale) by using Origin 7.0 software (OriginLab Corp.) and IC50 values were extracted from sigmoidal fit of the inhibition curve.

LecA [4] = molecular target: T1, LecA; assay: biochemical; format: binding; remark: listed apart in the source
Protocol: Isothermal Titration Microcalorimetry (ITC).
The method allows for a direct measurement of the affinity between the glycomimetics and the LecA lectin. The dissociation constant is measured.
More particularly, recombinant lyophilized LecA was dissolved in buffer (0.1 M TrisHCl, 6 μM CaCl2, pH 7.5) and degassed (see Supp. Info. for concentration details). Protein concentration was checked by measurement of optical density using a theoretical molar extinction coefficient of 28000. Carbohydrate ligands were dissolved directly into the same buffer, degassed, and placed in the injection syringe. ITC was performed with a VP-ITC MicroCalorimeter from MicroCal Incorporated. PA-IL was placed into the 1.4478-mL sample cell, at 25° C. Titration was performed with 10-μL injections of carbohydrate ligands every 300 s. Data were fitted with MicroCal Origin 7 software, according to standard procedures. Fitted data yielded the stoichiometry (n), the association constant (Ka) and the enthalpy of binding (ΔH).
Other thermodynamic parameters (i.e. changes in free energy, ΔG, and entropy, ΔS) were calculated from the equation: ΔG=ΔH TΔS=−RT Inka where T is the absolute temperature and R=8.314 J·mol^−1·K^−1. Two or three independent titrations were performed for each ligand tested.

P. aeruginosa = assay: Mice model of lung infection, alveolar capillary barrier permeability (125I-albumin); format: in vivo; settings: co-instillation into lungs with P. aeruginosa, 6 h after infection
Protocol: Mice were briefly anesthetized with inhaled sevoflurane. For each mouse, 50 l of a bacterial inoculum of 5×10^8 CFU/ml was instilled into the lungs through a gavage inserted into trachea via the oropharynx. The alveolar capillary barrier permeability was evaluated by measuring residual ^125I-albumin instilled intratracheally as an alveolar protein tracer in the lungs and its leakage and accumulation in the plasma aftert 6 h after infection. The intratracheal instillate was a mixture of 1 μCi of ^125I-labeled albumin and 5% bovine albumin together with the P. aeruginosa inoculate and different monosaccharides or glycocompounds. The total radioactivity in the instillate was measured. Fifty microliters of instillate was inoculated into the lungs of each anesthetized mouse. […] The blood was collected by carotid arterial puncture, and a sternotomy was performed to harvest and measure the radioactivity in the lungs, trachea, and stomach. The quantity of 125l-albumin that leaked into the circulation was calculated by multiplying the activity in a blood sample by the volume of blood.
Compound 14 has been compared with two monosaccharides: glucose and galactose, in animal models assays. […] For this, labelled albumin was […] was estimated. […]

Rabbit erythrocytes = assay: Hemolysis of red cells observed in the hemagglutination inhibition assay; format: cell-based; settings: at the concentration used in the hemagglutination inhibition assay
Protocol: as §1
The values given in table 1 are inhibiting concentrations of lectin-induced rec cells agglutination. Monocovalent glycoconjugate compound 14 and tetravalent glyconjugate compounds 21 and 23 are the most efficient.

[5] = read-out: IC50 for the inhibition of labelled-LecA binding to a galactosylated polymer (ELLA), biotinylated LecA 0.1 μg/mL, multi-well plate

T1 sequence (Q05097 whole entry): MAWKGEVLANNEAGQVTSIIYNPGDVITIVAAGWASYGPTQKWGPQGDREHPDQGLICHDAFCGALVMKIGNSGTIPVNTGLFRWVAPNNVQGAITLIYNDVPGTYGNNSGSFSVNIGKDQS

`O=C(Cn1cc(CO)nn1)Nc1ccc(O[C@@H]2O[C@H](CO)[C@H](O)[C@H](O)[C@H]2O)cc1` [Comp. 14, 4-[(1,2,3-Triazol-4-hydroxymethyl-1-yl)-acetamido]phenyl β-D-galactopyranoside] was tested, and the “inhibiting concentrations of lectin-induced red cells agglutination (minimum inhibitory concentration)” value (LecA [1]) was 250 µM, the IC50 (LecA [2]) was 46 µM and the IC50 (LecA [3]) was 2.6 µM. For the same compound, the Kd (LecA [4]) was 5.8 µM and the “reduction of lung damages (alveolar barrier permeability) versus bacteria without sugar” value (P. aeruginosa) was “approximately 50%”.
In the case of `CC(C)(C)c1cc2c(OCc3cn(CC(=O)Nc4ccc(OC5OC(CO)C(O)C(O)C5O)cc4)nn3)c(c1)Cc1cc(C(C)(C)C)cc(c1OCc1cn(CC(=O)Nc3ccc(OC4OC(CO)C(O)C(O)C4O)cc3)nn1)Cc1cc(C(C)(C)C)cc(c1OCc1cn(CC(=O)Nc3ccc(OC4OC(CO)C(O)C(O)C4O)cc3)nn1)Cc1cc(C(C)(C)C)cc(c1OCc1cn(CC(=O)Nc3ccc(OC4OC(CO)C(O)C(O)C4O)cc3)nn1)C2` (stereo not shown) [Comp. 27], the “IC50 (ELLA), in words” value (LecA [2]) is reported as “sub micromolar range”, the IC50 (LecA [2]; [5]) is reported as 0.8 µM and the “Hemolysis of red cells” value (Rabbit erythrocytes) is reported as “Hemolysis of red cells is observed”.
With `CC(C)(C)c1cc2c(OCc3cn(CC(=O)Nc4ccc(OC5OC(CO)C(O)C(O)C5O)cc4)nn3)c(c1)Cc1cc(C(C)(C)C)cc(c1OCc1cn(CC(=O)Nc3ccc(OC4OC(CO)C(O)C(O)C4O)cc3)nn1)Cc1cc(C(C)(C)C)cc(c1OCc1cn(CC(=O)Nc3ccc(OC4OC(CO)C(O)C(O)C4O)cc3)nn1)Cc1cc(C(C)(C)C)cc(c1OCc1cn(CC(=O)Nc3ccc(OC4OC(CO)C(O)C(O)C4O)cc3)nn1)C2` (stereo not shown) [Comp. 29] the “IC50 (ELLA), in words” value (LecA [2]) was “sub micromolar range”, the IC50 (LecA [2]; [5]) was 0.9 µM and the “Hemolysis of red cells” value (Rabbit erythrocytes) was “Hemolysis of red cells is observed”.
`CC(C)(C)c1cc2c(OCc3cn(CC(=O)Nc4ccc(OC5OC(CO)C(O)C(O)C5O)cc4)nn3)c(c1)Cc1cc(C(C)(C)C)cc(c1OCc1cn(CC(=O)Nc3ccc(OC4OC(CO)C(O)C(O)C4O)cc3)nn1)Cc1cc(C(C)(C)C)cc(c1OCc1cn(CC(=O)Nc3ccc(OC4OC(CO)C(O)C(O)C4O)cc3)nn1)Cc1cc(C(C)(C)C)cc(c1OCc1cn(CC(=O)Nc3ccc(OC4OC(CO)C(O)C(O)C4O)cc3)nn1)C2` (stereo not shown) [Comp. 31] was tested, and the IC50 (LecA [2]; [5]) was 5 µM and the “Hemolysis of red cells” value (Rabbit erythrocytes) was “Hemolysis of red cells is observed”.
